The results in this text go back to ChEMBL document CHEMBL1143467, “Synthesis of potent and selective serotonin 5-HT1B receptor ligands” (Bioorg Med Chem Lett, 2005).

SMILES strings stand for the structures.

Assay [1] concerns the target T1, Muscarinic acetylcholine receptor M1 (Homo sapiens, UniProt P11229).
T1 sequence (P11229 whole entry): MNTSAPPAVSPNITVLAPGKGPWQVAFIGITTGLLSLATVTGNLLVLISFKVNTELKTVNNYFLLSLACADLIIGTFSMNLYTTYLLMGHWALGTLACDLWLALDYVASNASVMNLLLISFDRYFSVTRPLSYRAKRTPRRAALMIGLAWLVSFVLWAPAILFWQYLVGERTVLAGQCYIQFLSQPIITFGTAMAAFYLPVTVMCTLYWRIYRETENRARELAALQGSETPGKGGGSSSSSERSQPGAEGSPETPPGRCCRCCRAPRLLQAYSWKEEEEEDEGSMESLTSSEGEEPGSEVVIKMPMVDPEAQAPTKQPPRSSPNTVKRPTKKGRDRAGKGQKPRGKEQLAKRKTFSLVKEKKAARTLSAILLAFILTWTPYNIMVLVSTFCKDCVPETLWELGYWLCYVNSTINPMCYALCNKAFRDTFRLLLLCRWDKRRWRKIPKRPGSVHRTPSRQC
In words: Affinity towards cloned Muscarinic acetylcholine receptor M1.

Assay [2] addresses T2, Muscarinic acetylcholine receptor M2 (Homo sapiens, UniProt P08172).
T2 sequence (P08172 whole entry): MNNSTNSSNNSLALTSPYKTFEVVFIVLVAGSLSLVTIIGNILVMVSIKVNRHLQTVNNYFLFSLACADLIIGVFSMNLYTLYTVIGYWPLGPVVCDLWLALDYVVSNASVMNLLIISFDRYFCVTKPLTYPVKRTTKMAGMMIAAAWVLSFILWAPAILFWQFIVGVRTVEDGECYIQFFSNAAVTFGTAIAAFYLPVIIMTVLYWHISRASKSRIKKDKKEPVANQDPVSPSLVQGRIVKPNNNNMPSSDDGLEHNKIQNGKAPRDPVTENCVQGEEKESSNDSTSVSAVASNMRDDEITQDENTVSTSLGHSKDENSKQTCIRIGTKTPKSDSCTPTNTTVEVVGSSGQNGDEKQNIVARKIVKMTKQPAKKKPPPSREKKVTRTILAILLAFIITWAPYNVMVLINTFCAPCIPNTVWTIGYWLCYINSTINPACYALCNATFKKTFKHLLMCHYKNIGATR
In words: Affinity towards cloned Muscarinic acetylcholine receptor M2.

The target of assay [3] is 5-hydroxytryptamine receptor 7 (Homo sapiens, UniProt P34969). The experiment in a line: In vitro binding affinity towards cloned human 5-HT7 receptor using [3H]5-carboximidotryptamine as radioligand.
Another assay concerns the target D(3) dopamine receptor (Homo sapiens, UniProt P35462). The experiment in a line: Affinity towards cloned Dopamine receptor D3.
Assay [4] concerns the target Muscarinic acetylcholine receptor M3 (Homo sapiens, UniProt P20309). The experiment in a line: Affinity towards cloned Muscarinic acetylcholine receptor M3.
In assay [5] the target is T3, 5-hydroxytryptamine receptor 1A (Homo sapiens, UniProt P08908).
T3 sequence (P08908 whole entry): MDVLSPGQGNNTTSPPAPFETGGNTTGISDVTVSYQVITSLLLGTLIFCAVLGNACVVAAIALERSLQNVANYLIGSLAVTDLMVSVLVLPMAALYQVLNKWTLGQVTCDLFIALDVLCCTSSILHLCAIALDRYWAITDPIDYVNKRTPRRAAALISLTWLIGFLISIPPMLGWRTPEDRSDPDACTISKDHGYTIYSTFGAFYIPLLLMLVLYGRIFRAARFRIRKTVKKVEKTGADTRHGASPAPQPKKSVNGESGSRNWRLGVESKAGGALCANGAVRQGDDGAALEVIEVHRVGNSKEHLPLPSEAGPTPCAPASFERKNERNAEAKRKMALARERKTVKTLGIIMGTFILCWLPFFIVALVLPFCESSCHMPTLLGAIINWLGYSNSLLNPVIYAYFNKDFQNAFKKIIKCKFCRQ
In words: In vitro binding affinity towards cloned human 5-HT1A receptor using [3H]5-carboximidotryptamine as radioligand.

The target of assay [6] is Kappa-type opioid receptor (Homo sapiens, UniProt P41145). In words: Affinity towards cloned Opioid receptor kappa 1.
The target in another assay is D(1A) dopamine receptor (Homo sapiens, UniProt P21728). In words: Affinity towards cloned Dopamine receptor D1.
The target of assay [7] is Delta-type opioid receptor (Homo sapiens, UniProt P41143). The experiment in a line: Affinity towards cloned Opioid receptor delta 1.
For assay [8], the target named is 5-hydroxytryptamine receptor 1B (Homo sapiens, UniProt P28222). In words: In vitro binding affinity towards cloned human 5-HT1B receptor using [3H]5-carboximidotryptamine as radioligand.
For a further assay, the target named is T4, D(4) dopamine receptor (Homo sapiens, UniProt P21917).
T4 sequence (P21917 whole entry): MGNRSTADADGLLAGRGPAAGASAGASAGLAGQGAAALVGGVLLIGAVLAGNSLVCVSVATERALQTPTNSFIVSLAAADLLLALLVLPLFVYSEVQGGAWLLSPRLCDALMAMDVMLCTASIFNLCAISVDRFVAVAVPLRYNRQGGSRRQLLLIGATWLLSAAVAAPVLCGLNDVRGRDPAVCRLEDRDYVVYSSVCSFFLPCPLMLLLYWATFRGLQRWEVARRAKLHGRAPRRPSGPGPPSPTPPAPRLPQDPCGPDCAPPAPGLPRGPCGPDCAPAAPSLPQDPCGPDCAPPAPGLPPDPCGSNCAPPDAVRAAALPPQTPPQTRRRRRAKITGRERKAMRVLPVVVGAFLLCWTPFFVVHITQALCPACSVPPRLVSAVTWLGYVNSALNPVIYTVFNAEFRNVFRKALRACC
In words: Affinity towards cloned Dopamine receptor D4.

Another assay concerns the target D(1B) dopamine receptor (Homo sapiens, UniProt P21918). The experiment in a line: Affinity towards cloned Dopamine receptor D5.
The target of the next assay is D(2) dopamine receptor (Homo sapiens, UniProt P14416). In words: Affinity towards cloned Dopamine receptor D2.
Assay [9] is described as follows: Affinity towards cloned Nicotinic acetylcholine receptor.
Assay [10] deals with T5, Muscarinic acetylcholine receptor M5 (Homo sapiens, UniProt P08912).
T5 sequence (P08912 whole entry): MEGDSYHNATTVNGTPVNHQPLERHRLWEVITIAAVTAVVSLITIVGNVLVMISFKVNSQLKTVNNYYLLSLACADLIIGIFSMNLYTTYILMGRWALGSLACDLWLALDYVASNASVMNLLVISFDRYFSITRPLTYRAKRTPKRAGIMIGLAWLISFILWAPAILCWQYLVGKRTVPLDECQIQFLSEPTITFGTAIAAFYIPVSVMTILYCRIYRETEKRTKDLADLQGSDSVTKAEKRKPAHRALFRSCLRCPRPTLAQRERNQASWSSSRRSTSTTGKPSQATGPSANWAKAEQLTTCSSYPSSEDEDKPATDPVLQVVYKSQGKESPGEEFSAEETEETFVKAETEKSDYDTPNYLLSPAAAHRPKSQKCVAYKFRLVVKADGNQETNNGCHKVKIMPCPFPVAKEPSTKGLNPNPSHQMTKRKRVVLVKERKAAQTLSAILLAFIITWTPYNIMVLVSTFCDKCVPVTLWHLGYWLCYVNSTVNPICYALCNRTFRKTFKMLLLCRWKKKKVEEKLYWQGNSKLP
In words: Affinity towards cloned Muscarinic acetylcholine receptor M5.

D(1A) dopamine receptor, sequence (P21728 whole entry): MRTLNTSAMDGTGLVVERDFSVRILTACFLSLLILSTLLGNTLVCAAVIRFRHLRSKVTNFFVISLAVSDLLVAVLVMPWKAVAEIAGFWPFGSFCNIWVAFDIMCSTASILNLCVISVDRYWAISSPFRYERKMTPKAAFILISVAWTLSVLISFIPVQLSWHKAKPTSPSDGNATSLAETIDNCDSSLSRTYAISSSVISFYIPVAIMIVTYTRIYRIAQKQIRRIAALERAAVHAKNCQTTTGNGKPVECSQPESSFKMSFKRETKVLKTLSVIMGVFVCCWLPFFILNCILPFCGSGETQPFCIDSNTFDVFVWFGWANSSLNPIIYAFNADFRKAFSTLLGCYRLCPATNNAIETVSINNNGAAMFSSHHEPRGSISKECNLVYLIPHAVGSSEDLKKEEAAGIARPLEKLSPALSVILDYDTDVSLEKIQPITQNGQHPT
5-hydroxytryptamine receptor 7, sequence (P34969 whole entry): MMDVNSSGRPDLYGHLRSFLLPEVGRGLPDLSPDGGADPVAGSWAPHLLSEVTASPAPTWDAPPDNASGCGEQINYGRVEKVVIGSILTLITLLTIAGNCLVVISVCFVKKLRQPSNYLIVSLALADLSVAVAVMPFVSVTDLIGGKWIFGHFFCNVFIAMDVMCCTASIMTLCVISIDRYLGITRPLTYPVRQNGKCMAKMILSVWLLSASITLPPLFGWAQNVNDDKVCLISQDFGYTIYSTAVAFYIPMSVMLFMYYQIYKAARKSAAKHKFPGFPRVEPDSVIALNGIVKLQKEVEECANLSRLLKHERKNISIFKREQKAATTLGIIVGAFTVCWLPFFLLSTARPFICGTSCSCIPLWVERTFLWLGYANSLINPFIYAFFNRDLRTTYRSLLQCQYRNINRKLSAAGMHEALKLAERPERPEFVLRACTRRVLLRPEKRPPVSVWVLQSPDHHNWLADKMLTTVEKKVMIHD
D(1B) dopamine receptor, sequence (P21918 whole entry): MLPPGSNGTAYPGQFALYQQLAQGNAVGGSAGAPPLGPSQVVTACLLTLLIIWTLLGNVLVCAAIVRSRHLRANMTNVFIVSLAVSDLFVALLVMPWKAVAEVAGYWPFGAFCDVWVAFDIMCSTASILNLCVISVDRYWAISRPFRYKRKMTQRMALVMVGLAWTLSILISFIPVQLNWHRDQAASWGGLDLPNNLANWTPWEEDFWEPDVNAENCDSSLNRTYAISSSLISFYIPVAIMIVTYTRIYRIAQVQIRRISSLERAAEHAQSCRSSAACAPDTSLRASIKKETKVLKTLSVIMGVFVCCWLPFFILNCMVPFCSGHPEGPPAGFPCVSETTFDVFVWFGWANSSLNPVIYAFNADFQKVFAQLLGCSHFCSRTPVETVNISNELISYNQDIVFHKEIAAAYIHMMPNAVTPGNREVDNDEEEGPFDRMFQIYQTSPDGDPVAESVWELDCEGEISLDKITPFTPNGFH
Delta-type opioid receptor, sequence (P41143 whole entry): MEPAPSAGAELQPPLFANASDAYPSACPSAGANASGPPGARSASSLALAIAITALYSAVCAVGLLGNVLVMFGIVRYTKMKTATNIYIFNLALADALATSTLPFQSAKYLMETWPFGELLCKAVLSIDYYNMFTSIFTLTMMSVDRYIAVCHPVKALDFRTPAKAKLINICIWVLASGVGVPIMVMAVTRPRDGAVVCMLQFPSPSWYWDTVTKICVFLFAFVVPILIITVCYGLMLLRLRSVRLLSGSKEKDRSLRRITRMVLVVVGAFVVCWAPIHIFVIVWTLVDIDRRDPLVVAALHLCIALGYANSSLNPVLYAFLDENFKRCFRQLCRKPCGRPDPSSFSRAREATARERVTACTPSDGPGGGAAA
D(2) dopamine receptor, sequence (P14416 whole entry): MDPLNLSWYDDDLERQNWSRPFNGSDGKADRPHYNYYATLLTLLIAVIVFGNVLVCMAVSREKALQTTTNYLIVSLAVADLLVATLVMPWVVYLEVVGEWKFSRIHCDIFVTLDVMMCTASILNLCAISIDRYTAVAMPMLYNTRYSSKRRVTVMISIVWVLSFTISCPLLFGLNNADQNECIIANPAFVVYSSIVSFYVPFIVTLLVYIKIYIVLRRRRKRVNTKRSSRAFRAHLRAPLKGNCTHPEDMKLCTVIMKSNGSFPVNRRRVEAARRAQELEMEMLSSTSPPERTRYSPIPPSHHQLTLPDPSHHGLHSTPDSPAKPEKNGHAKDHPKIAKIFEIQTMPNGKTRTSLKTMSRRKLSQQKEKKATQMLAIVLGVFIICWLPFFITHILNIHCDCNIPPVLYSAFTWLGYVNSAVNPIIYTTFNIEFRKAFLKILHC
5-hydroxytryptamine receptor 1B, sequence (P28222 whole entry): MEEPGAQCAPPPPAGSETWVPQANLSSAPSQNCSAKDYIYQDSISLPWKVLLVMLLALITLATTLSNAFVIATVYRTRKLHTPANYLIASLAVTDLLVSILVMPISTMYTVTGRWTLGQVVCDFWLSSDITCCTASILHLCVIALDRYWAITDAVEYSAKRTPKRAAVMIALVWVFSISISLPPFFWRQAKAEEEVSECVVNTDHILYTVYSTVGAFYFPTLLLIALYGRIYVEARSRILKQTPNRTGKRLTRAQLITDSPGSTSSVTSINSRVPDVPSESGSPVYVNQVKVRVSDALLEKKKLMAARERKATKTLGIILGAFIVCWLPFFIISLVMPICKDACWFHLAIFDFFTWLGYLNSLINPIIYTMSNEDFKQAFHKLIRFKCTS
D(3) dopamine receptor, sequence (P35462 whole entry): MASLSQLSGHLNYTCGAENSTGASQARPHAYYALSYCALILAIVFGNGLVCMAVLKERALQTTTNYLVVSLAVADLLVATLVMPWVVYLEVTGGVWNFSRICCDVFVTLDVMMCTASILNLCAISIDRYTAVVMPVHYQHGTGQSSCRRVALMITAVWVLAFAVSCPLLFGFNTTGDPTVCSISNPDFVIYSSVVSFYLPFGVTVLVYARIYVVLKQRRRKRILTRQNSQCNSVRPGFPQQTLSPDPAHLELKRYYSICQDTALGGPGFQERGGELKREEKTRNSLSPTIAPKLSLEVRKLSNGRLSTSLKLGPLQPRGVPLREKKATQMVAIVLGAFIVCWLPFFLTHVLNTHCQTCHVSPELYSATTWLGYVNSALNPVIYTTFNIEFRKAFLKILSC
Kappa-type opioid receptor, sequence (P41145 whole entry): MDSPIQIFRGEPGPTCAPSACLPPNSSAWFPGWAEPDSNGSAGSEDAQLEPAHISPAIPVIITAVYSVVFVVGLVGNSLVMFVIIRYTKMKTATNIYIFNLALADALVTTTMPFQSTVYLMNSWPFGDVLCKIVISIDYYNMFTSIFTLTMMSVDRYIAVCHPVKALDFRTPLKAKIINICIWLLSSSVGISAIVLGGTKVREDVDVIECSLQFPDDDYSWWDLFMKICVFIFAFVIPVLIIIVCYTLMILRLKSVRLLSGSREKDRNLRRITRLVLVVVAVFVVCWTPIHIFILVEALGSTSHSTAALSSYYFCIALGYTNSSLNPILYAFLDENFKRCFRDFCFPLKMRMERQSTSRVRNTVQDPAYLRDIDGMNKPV
Muscarinic acetylcholine receptor M3, sequence (P20309 whole entry): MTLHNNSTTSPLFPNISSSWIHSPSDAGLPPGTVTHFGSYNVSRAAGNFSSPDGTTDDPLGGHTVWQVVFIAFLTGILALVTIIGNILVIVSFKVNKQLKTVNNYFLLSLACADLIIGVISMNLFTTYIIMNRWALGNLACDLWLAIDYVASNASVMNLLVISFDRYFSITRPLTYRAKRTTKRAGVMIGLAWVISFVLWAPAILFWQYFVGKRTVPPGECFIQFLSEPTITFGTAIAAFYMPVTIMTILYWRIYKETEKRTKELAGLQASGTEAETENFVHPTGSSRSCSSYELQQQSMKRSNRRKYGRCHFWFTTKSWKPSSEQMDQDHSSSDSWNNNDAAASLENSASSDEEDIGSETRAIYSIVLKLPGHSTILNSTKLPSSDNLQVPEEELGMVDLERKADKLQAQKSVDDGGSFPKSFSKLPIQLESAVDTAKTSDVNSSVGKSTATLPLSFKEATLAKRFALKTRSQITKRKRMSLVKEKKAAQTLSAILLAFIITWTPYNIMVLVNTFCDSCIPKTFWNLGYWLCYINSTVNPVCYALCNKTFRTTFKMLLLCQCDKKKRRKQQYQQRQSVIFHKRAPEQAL

In the case of `COc1ccc(NC(=O)N2CCN(c3ccc(F)cc3)CC2)cc1N1CCN(C)CC1`, the Ki (as a rule, the equilibrium dissociation constant of an inhibitor or competing ligand from its target) in assay [1] was more than 10 µM; in assay [2], more than 10 µM; in assay [3] it was more than 10 µM; on D(3) dopamine receptor it was more than 10 µM; in [4], more than 10 µM; in assay [5] it was 1.08 µM. In addition, the Ki was more than 10 µM in assay [6]; more than 10 µM on D(1A) dopamine receptor; more than 10 µM in assay [7]; 0.0383 µM in assay [8]; more than 10 µM on D(4) dopamine receptor; more than 10 µM at D(1B) dopamine receptor. Further, the Ki (at D(2) dopamine receptor; in assay [9]; in assay [10]) was more than 10 µM throughout.
As to `COc1ccccc1N1CCC(C(=O)Nc2ccc(OC)c(N3CCN(C)CC3)c2)CC1`, the Ki in assay [1] is more than 10 µM; in assay [2] it was more than 10 µM; on D(3) dopamine receptor, more than 10 µM; in [4] it was more than 10 µM; in assay [5], 0.0154 µM; in assay [6] it was more than 10 µM. The Ki is more than 10 µM on D(1A) dopamine receptor; more than 10 µM in assay [7]; 0.00968 µM in [8]; more than 10 µM on D(4) dopamine receptor; more than 10 µM on D(1B) dopamine receptor; more than 10 µM at D(2) dopamine receptor. Besides, the Ki in [9] and in assay [10] was more than 10 µM throughout.
With `COc1ccc(NC(=O)N2CCN(c3ccccc3F)CC2)cc1N1CCN(C)CC1`, the Ki is more than 10 µM in assay [1]; more than 10 µM in assay [2]; more than 10 µM in [3]; more than 10 µM on D(3) dopamine receptor; more than 10 µM in [4]; 0.315 µM in [5]. Also, the Ki was more than 10 µM in [6]; more than 10 µM at D(1A) dopamine receptor; more than 10 µM in [7]; 0.0181 µM in assay [8]; more than 10 µM at D(4) dopamine receptor; more than 10 µM on D(1B) dopamine receptor. Also, the Ki (at D(2) dopamine receptor; in assay [9]; in [10]) was more than 10 µM in each case.
As to `COc1ccc(NC(=O)N2CCN(c3ccc(C(F)(F)F)cc3)CC2)cc1N1CCN(C)CC1`, the Ki is more than 10 µM in assay [1]; more than 10 µM in assay [2]; more than 10 µM in assay [3]; more than 10 µM on D(3) dopamine receptor; more than 10 µM in assay [4]; 0.382 µM in assay [5]. The Ki in assay [6] was more than 10 µM; on D(1A) dopamine receptor, more than 10 µM; in [7], more than 10 µM; in assay [8] it was 0.0284 µM; on D(4) dopamine receptor it was more than 10 µM; on D(1B) dopamine receptor, more than 10 µM. In addition, the Ki (at D(2) dopamine receptor; in assay [9]; in assay [10]) was more than 10 µM each time.
As to `COc1ccc(NC(=O)N2CCN(c3ccc(-c4ccccc4)cc3)CC2)cc1N1CCN(C)CC1`, the Ki is more than 10 µM in assay [1]; more than 10 µM in assay [2]; more than 10 µM in assay [3]; more than 10 µM on D(3) dopamine receptor; more than 10 µM in assay [4]; 0.405 µM in [5]. The Ki in [6] was more than 10 µM; on D(1A) dopamine receptor, more than 10 µM; in assay [7] it was more than 10 µM; in [8] it was 0.0137 µM; on D(4) dopamine receptor, more than 10 µM; at D(1B) dopamine receptor, more than 10 µM. Besides, the Ki (on D(2) dopamine receptor; in [9]; in [10]) was more than 10 µM throughout.
For the molecule `COc1ccc(NC(=O)N2CCN(c3ccc(SC)cc3)CC2)cc1N1CCN(C)CC1`, the Ki in assay [1] was more than 10 µM; in [2], more than 10 µM; in assay [3], more than 10 µM; at D(3) dopamine receptor, more than 10 µM; in [4], more than 10 µM; in [5], 0.882 µM. For the same molecule, the Ki in assay [6] was more than 10 µM; at D(1A) dopamine receptor it was more than 10 µM; in [7] it was more than 10 µM; in assay [8], 0.0167 µM; on D(4) dopamine receptor, more than 10 µM; at D(1B) dopamine receptor it was more than 10 µM. Further, the Ki (on D(2) dopamine receptor; in assay [9]; in assay [10]) was more than 10 µM each time.
Take `COc1ccc(NC(=O)N2CCN(c3ccccc3Cl)CC2)cc1N1CCN(C)CC1`: the Ki was more than 10 µM in assay [1]; more than 10 µM in assay [2]; 0.342 µM in assay [3]; more than 10 µM on D(3) dopamine receptor; more than 10 µM in assay [4]; 0.335 µM in assay [5]. Further, the Ki is more than 10 µM in assay [6]; more than 10 µM on D(1A) dopamine receptor; more than 10 µM in assay [7]; 0.0113 µM in [8]; more than 10 µM on D(4) dopamine receptor; more than 10 µM at D(1B) dopamine receptor. The Ki (on D(2) dopamine receptor; in assay [9]; in assay [10]) was more than 10 µM in each case.
With `COc1ccc(NC(=O)N2CCN(c3ccc(Cl)cc3)CC2)cc1N1CCN(C)CC1`, the Ki was more than 10 µM in assay [1]; more than 10 µM in [2]; more than 10 µM in assay [3]; more than 10 µM on D(3) dopamine receptor; more than 10 µM in assay [4]; 0.0525 µM in [5]. For the same molecule, the Ki in assay [6] is more than 10 µM; at D(1A) dopamine receptor, more than 10 µM; in assay [7], more than 10 µM; in [8] it was 0.00182 µM; at D(4) dopamine receptor, more than 10 µM; on D(1B) dopamine receptor, more than 10 µM. Moreover, the Ki (on D(2) dopamine receptor; in assay [9]; in [10]) was more than 10 µM in each case.
With `COc1ccc(NC(=O)c2ccc(-c3ccc(-c4noc(C)n4)cc3C)cc2)cc1N1CCN(C)CC1` [GR-127935], the Ki is more than 10 µM in assay [1]; more than 10 µM in assay [2]; more than 10 µM in assay [3]; more than 10 µM at D(3) dopamine receptor; more than 10 µM in assay [4]; 0.08 µM in assay [5]. Moreover, the Ki in assay [6] is more than 10 µM; at D(1A) dopamine receptor, more than 10 µM; in assay [7] it was more than 10 µM; in [8], 0.00431 µM; on D(4) dopamine receptor, more than 10 µM; on D(1B) dopamine receptor, more than 10 µM. Further, the Ki (on D(2) dopamine receptor; in [9]; in assay [10]) was more than 10 µM each time.
